The source made the active and inactive calls.
Key:
[1] = off-target signal loss in HeLa-CEM21 co-culture – HeLa F-luc CTL cells, cherry-picked, counter-screen for HIV-1 Env fusion inhibitor project, dose response (AID 652040); type: functional, cell-based;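 also: potency for signal decrease marking cytotoxic or nonspecific inhibition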
[2] = test system: HeLa; assay: viability loss in HeLa cells – cell-based, ATP luminescence, cherry-pick samples, cytotoxicity control, dose response (AID 687004); type: functional; details: Homo sapiens
[3] = test system: HepG2; assay: viability loss in HepG2 hepatoma cells – cell-based, cherry-picks, set 2, cytotoxicity control, dose response (AID 687002); type: functional; details: Homo sapiens
[4] = viability loss in CEM21 cells – cell-based, CellTiter-Glo luminescence, cherry-picked, cytotoxicity control for viral fusion inhibitor project, dose response (AID 652042); type: functional;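 also: potency for signal decrease meaning cytotoxicity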
[5] = target: Botulinum neurotoxin type F (Clostridium botulinum, UniProt P30996); assay: High-throughput multiplex microsphere dose response for inhibitors of toxin protease, specifically Botulinum neurotoxin light chain F protease, compounds from Cherry Pick 02.; type: functional; details: read-out: EC50_MICROM
Chain of Botulinum neurotoxin type F (P30996 1-436 limits assumed): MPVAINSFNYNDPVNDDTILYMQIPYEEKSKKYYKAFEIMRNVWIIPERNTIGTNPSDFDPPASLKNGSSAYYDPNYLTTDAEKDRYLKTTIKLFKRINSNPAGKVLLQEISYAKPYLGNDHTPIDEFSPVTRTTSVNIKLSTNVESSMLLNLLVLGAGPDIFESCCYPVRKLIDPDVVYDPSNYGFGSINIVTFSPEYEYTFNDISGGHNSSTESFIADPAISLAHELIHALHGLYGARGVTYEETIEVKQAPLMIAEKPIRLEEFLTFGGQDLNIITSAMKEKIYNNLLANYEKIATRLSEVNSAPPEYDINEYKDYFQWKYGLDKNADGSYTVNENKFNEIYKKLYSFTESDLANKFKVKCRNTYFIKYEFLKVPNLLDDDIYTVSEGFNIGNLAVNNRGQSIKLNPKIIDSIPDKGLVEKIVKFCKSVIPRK

[6] = target: T1, NAD-dependent protein deacylase sirtuin-5, mitochondrial (Homo sapiens, UniProt Q9NXA8); assay: sirtuin-5 deacylation blockers, concentration series – biochemical, fluorescence imaging, cherry-pick, set 5, dose response (AID 720591);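 also: desuccinylation of succinyl peptide AMC substrate read as fluorescence after trypsin release; potency of inhibitors that lower fluorescence and may act on trypsin instead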
T1 sequence (Q9NXA8 whole entry): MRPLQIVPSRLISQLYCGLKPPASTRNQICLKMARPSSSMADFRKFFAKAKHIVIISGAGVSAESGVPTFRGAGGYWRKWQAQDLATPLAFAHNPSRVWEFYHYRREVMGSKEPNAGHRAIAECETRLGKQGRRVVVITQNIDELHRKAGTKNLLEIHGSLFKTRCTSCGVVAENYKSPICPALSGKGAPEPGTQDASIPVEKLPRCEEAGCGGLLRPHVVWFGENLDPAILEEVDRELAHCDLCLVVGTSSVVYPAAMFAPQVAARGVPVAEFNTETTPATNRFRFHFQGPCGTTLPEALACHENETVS

[7] = loss of viability in hepatoma HepG2 cells – cell-based, ATP luminescence, dry powder, cytotoxicity control, dose response (AID 652118); type: functional
[8] = target: Protein disulfide-isomerase (Homo sapiens, UniProt P07237); assay: inhibition of PDI-mediated insulin reduction – biochemical, turbidity, dry powder samples, set 2, confirmation (AID 652146)
[9] = reduced cellular PGC1a acetyl-lysine signal – cell-based, cherry-picked samples, dose response (AID 720514); type: functional;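 also: potency may reflect raised or lowered acetylation signal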
[10] = OVCAR8 cell viability loss – plate reader, dry powder samples, PAX8 project, dose response (AID 743197); type: functional, cell-based; details: OVCAR-8
[11] = target: Paired box protein Pax-8 (Homo sapiens, UniProt Q06710); assay: PAX8 transcriptional activity inhibition in RMG-I – RMG-I cells, luciferase, cherry-pick, dose response (AID 687027); type: functional, cell-based;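 also: luciferase reporter driven by Pax8 target thyroperoxidase promoter measured by SteadyGlo luminescence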
Chain of Paired box protein Pax-8 (Q06710 whole entry): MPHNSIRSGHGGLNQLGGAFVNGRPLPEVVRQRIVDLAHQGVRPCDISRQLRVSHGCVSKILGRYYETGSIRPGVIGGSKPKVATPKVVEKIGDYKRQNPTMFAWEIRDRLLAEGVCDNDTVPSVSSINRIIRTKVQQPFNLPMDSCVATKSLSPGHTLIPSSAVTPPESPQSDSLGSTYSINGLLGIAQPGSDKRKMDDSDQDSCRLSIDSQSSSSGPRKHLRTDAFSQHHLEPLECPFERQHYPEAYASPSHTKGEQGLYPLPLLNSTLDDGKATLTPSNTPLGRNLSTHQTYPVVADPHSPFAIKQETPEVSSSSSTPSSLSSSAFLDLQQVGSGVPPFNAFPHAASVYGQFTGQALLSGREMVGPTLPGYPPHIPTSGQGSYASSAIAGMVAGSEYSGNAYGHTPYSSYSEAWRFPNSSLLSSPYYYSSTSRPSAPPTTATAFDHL

[12] = IGROV1 cell killing – plate reader, dry powder samples, PAX8 inhibitor project, dose response (AID 743043); type: functional, cell-based; details: IGROV-1
[13] = toxicity to human hepatoma HepG2 cells – cell-based, cherry-picked samples, cytotoxicity control, dose response (AID 1159577); type: functional
[14] = P. falciparum Dd2 growth inhibitors, dose response, SYBR Green, cherry-picked samples (AID 1159567); type: functional, cell-based
[15] = general cell-killing toxicity readout – plate reader, dry powder samples, cytotoxicity control for PAX8 inhibitor project, dose response (AID 743021); type: functional, cell-based
[16] = Late stage counterscreen for inhibitors of Trypanosoma brucei methionyl tRNA synthetase (MetRS): Luminescence-based cell-based high throughput dose response assay to identify compounds that are cytotoxic to Jurkat human T lymphocyte cells.; type: functional
[17] = viability loss in MITF-independent A375 cells – cell-based, CellTiter-Glo luminescence, dry powder, set 2, counter-screen for MITF inhibitor project, dose response (AID 624489); type: functional; details: A-375;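 also: actives are compounds lowering A375 viability meaning general cytotoxicity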
[18] = cytotoxicity in MITF-independent A375 cells – cell-based, CellTiter-Glo luminescence, dry powder, set 4, counter-screen for MITF inhibitor project, dose response (AID 624364); type: functional; details: A-375;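 also: A375 melanoma cells are MITF independent so this is a counter screen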
[19] = test system: BJ; assay: BJ-TERT-LT-ST fibroblast viability loss – cell-based, RAS-independent, luminescence, dose response (AID 1935); type: functional; details: Homo sapiens;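 also: BJ fibroblasts immortalized with TERT plus LT and ST oncogenes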
[20] = test system: BJ; assay: BJ-TERT fibroblast viability loss – cell-based, RAS-independent, luminescence, dose response (AID 1933); type: functional; details: Homo sapiens
[21] = rescue of ΔF508 CFTR function, airway epithelium – human bronchial epithelial cells, plate reader, cherry-pick, two tests, dose response (AID 743267); type: functional, cell-based
[22] = DRD fibroblast viability loss – cell-based, non-viral oncogenic, luminescence, dose response (AID 1934); type: functional; details: Homo sapiens
[23] = test system: BJ; assay: cells; type: functional, cell-based; details: Homo sapiens
[24] = target: C-C chemokine receptor type 6 (Homo sapiens, UniProt P51684); assay: SAR analysis of small molecule antagonists of the CXCR6 receptor using a CCR6 receptor luminescent beta-arrestin counterscreen.; type: functional
Chain of C-C chemokine receptor type 6 (P51684 whole entry): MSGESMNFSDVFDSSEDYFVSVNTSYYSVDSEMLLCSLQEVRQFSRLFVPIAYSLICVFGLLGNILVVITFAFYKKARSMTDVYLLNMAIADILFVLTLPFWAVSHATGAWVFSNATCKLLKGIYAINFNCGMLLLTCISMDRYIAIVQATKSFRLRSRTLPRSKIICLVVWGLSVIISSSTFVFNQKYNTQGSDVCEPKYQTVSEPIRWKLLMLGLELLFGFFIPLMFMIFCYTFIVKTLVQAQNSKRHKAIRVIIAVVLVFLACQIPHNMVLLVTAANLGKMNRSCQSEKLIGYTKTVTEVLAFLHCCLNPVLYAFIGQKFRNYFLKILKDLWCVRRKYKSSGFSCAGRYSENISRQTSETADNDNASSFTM

[25] = target: C-X-C chemokine receptor type 4 (Homo sapiens, UniProt P61073); assay: SAR analysis of small molecule antagonists of the CXCR6 receptor using a CXCR4 receptor luminescent beta-arrestin counterscreen.; type: functional
Chain of C-X-C chemokine receptor type 4 (P61073 whole entry): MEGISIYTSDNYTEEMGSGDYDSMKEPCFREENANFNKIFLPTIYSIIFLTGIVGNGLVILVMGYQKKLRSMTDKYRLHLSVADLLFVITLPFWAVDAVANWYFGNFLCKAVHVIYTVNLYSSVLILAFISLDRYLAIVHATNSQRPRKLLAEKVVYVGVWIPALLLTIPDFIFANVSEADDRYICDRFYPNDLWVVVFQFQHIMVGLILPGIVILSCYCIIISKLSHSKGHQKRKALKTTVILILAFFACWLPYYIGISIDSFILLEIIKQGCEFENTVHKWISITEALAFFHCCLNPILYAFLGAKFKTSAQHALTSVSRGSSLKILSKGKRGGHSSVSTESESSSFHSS

[26] = target: Potassium channel subfamily K member 9 (Homo sapiens, UniProt Q9NPC2); assay: KCNK9 flux blockade, concentration-response – cell-based, FluxOR thallium flux, selectivity assay for TASK1 inhibitor project, SAR follow-up (AID 652211); type: functional;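 also: potency is for inhibitors of the channel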
Chain of Potassium channel subfamily K member 9 (Q9NPC2 whole entry): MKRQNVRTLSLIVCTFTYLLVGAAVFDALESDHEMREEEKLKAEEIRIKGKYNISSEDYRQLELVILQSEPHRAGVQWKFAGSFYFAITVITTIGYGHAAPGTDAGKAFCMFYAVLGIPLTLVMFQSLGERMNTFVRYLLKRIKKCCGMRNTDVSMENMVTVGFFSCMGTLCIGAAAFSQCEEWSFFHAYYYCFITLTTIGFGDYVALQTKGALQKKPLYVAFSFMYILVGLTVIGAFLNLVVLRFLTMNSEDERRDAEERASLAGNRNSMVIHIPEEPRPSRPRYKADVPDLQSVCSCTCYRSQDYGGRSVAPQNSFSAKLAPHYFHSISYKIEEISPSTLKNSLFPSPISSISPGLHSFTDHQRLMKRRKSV

[27] = target: Potassium channel subfamily K member 3 (Homo sapiens, UniProt O14649); assay: inhibition of human KCNK3 channel flux – CHO cells, FluxOR thallium flux, SAR follow-up (AID 652212); type: functional
Chain of Potassium channel subfamily K member 3 (O14649 whole entry): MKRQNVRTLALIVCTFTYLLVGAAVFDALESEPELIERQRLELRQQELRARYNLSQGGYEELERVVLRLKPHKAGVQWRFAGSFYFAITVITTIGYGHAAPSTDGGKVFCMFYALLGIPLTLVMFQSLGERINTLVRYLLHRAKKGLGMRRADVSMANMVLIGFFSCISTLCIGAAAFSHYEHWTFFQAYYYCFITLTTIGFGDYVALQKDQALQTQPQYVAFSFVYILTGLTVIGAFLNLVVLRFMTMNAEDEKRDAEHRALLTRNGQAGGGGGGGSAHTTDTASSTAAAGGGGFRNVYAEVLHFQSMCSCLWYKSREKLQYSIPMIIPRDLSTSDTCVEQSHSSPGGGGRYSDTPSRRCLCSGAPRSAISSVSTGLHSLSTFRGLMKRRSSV

[28] = target: 5-hydroxytryptamine receptor 2A (Mus musculus, UniProt P35363); type: functional, cell-based;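 also: CHO-K1 cells with tagged receptor and beta-arrestin; agonist potency measured as compound-induced activation of the receptor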
Chain of 5-hydroxytryptamine receptor 2A (P35363 whole entry, the tested form may be a part): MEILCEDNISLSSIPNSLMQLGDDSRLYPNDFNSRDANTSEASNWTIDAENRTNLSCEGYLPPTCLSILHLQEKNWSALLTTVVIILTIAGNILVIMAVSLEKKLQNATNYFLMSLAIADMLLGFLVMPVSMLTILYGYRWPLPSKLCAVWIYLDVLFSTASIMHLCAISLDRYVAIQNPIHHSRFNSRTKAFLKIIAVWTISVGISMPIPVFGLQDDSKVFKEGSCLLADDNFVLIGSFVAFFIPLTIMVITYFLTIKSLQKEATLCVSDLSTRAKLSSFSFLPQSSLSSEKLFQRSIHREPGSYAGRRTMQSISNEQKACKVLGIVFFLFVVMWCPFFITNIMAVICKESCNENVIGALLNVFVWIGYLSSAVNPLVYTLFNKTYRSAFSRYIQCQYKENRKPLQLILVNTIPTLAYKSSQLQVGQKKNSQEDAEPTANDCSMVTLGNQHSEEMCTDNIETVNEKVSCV

[29] = target: T2, RNA-binding protein pos-1 (Caenorhabditis elegans, UniProt G5EF15); assay: disruptors of C. elegans POS-1 RNA interaction – biochemical, fluorescence polarization, dose response (AID 1964);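 also: purified POS-1 fused to maltose binding protein made in E. coli; potency of compounds blocking POS-1 binding to fluorescent RNA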
T2 sequence (G5EF15 whole entry): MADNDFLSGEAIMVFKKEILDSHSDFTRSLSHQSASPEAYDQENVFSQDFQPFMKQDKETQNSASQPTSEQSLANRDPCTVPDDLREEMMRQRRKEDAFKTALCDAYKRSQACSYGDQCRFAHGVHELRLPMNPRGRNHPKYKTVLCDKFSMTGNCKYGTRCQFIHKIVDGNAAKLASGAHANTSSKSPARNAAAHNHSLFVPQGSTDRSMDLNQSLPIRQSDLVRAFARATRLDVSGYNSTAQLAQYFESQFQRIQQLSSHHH

[30] = target: Mu-type opioid receptor (Homo sapiens, UniProt P35372); type: functional, cell-based;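 also: U2OS cells with beta-arrestin recruitment to OPRM1 by beta-gal complementation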
[31] = target: T3, Zinc finger protein mex-5 (Caenorhabditis elegans, UniProt Q9XUB2); assay: potency of MEX-5 RNA-binding blockers – biochemical, C. elegans, fluorescence polarization, dose response (AID 1960)
T3 sequence (Q9XUB2 whole entry): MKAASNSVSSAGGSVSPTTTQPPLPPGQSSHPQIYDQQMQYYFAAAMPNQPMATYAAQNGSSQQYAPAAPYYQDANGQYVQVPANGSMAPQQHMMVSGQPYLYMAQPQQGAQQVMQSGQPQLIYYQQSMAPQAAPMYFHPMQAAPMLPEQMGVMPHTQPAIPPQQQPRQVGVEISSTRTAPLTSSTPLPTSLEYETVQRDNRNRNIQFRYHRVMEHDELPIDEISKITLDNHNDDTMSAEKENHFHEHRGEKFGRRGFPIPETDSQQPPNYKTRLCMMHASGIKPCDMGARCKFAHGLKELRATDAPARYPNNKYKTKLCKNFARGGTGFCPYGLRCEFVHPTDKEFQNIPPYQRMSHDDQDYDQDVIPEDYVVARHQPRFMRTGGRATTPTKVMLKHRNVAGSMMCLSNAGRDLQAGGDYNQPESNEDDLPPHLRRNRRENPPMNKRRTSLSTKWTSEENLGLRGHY

[32] = target: T1, NAD-dependent protein deacylase sirtuin-5, mitochondrial; assay: blockers of sirtuin-5 peptide desuccinylation – biochemical, fluorescence imaging, cherry-pick, set 6, dose response (AID 720597)
[33] = target: Kallikrein-7 (Homo sapiens, UniProt P49862); assay: Fluorescence Intensity-based biochemical primary high throughput dose response assay to identify activators of kallikrein-7 (K7) zymogen.
Chain of Kallikrein-7 (P49862 whole entry): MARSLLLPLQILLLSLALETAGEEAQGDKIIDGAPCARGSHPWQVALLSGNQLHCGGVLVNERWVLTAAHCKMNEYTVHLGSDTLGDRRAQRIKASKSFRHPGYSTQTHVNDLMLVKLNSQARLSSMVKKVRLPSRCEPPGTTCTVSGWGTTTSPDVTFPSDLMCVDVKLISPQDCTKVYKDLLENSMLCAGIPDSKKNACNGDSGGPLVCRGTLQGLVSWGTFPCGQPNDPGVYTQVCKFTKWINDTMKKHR

[34] = test system: Vero; assay: viability loss in Vero cells – cell-based, plate reader, cherry-pick samples, cytotoxicity control, dose response (AID 687020); type: functional; details: Chlorocebus sabaeus
[35] = target: Large T antigen (Simian virus 40, UniProt P03070); type: functional, Betapolyomavirus macacae;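 also: Confirmatory-stage PubChem screen for compounds that inhibit SV40 T antigen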
Chain of Large T antigen (P03070 whole entry): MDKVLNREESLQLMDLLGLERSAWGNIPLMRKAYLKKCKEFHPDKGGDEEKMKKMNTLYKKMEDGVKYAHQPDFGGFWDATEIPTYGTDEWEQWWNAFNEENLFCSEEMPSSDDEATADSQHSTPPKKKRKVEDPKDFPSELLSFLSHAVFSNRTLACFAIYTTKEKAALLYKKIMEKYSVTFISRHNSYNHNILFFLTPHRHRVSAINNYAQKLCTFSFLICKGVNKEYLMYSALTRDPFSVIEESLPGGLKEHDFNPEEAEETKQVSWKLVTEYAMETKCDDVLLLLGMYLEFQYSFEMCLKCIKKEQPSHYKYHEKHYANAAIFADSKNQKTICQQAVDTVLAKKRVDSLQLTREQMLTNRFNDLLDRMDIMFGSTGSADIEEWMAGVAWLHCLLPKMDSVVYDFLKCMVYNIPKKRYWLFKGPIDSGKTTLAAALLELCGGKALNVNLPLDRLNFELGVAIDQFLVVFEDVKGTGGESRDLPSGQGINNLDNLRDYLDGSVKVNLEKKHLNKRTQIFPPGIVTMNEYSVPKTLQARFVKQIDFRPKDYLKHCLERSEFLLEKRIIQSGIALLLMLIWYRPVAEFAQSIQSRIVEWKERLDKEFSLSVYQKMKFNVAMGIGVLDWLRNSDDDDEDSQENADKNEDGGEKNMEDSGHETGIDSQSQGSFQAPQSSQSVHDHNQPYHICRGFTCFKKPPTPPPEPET

[36] = target: Matrix metalloproteinase-14 (Homo sapiens, UniProt P50281); assay: Dose Response confirmation of uHTS hits for a small molecule inhibitors of MT1-MMP activation in a fluorescence assay set 1.; type: functional
[37] = target: T4, Bcl-2-like protein 10 (Homo sapiens, UniProt Q9HD36); assay: Bcl-B/TR3 peptide binding disruption – biochemical, fluorescence polarization, FITC-TR3 peptide, selectivity assay for Bfl-1 inhibitor project, primary screen (AID 748);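 also: fluorescence polarization from a fluorescein-labelled TR3 peptide binding purified Bcl-B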
T4 sequence (Q9HD36 whole entry): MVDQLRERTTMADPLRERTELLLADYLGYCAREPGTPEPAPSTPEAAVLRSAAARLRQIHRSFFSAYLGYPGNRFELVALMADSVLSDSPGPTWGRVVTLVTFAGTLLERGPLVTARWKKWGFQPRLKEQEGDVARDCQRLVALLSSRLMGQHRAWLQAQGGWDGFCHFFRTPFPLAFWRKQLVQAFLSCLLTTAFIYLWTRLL

[38] = Shn3 3'UTR reporter signal decrease – cell-based, Clone20 osteoblasts, firefly luciferase, cherry-pick, set 2, Schnurri-3 inhibitor project, dose response (AID 720490); type: functional;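 also: actives lower the luminescence signal as inhibitors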
[39] = MIN6 cell viability loss – mouse insulinoma, cytotoxicity control, dose response (AID 2122); type: functional;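 also: confirmatory high-throughput counterscreen run to flag cytotoxic compounds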
[40] = test system: INS1; assay: INS-1E survival protection against cytokine death – cell-based, luminescence, retest, dose response (AID 449756); type: functional; details: Rattus norvegicus;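 also: cell death triggered by IL-1 beta plus TNF-alpha plus IFN-gamma mixture; protective hits raise ATP signal compared with cytokine alone wells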
[41] = decrease of insulin promoter-GFP reporter – imaging, high-content screening, mouse beta cells (AID 1628); type: functional; details: MIN6
[42] = loss of viability in HepG2 cells – cell-based, CellTiter-Glo, cherry-picked, cytotoxicity control for Shn3 inhibitor project, dose response (AID 624134); type: functional
[43] = non-specific 3'UTR reporter inhibition in Clone20-Shn3RL – cell-based, Renilla luciferase, cherry-picked, counter-screen for Shn3 inhibitor project, dose response (AID 624133); type: functional
[44] = reduction of Shn3 3'UTR-driven luciferase in osteoblasts – cell-based, Clone20 osteoblasts, firefly luciferase, cherry-picked, dose response (AID 624132); type: functional;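 also: firefly luciferase luminescence from reporter carrying the Shn3 3'UTR in osteoblasts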
[45] = HGIII-sPLA2 enzyme inhibition potency – biochemical, QFRET, IC50, dose response (AID 743457);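 also: green fluorescence rise as the enzyme cleaves BODIPY PC-A2 in liposomes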
[46] = target: Intestinal-type alkaline phosphatase (Homo sapiens, UniProt P09923); assay: human intestinal alkaline phosphatase activators, dose response, biochemical, luminescence, uHTS hits (AID 463120); type: functional
Chain of Intestinal-type alkaline phosphatase (P09923 whole entry): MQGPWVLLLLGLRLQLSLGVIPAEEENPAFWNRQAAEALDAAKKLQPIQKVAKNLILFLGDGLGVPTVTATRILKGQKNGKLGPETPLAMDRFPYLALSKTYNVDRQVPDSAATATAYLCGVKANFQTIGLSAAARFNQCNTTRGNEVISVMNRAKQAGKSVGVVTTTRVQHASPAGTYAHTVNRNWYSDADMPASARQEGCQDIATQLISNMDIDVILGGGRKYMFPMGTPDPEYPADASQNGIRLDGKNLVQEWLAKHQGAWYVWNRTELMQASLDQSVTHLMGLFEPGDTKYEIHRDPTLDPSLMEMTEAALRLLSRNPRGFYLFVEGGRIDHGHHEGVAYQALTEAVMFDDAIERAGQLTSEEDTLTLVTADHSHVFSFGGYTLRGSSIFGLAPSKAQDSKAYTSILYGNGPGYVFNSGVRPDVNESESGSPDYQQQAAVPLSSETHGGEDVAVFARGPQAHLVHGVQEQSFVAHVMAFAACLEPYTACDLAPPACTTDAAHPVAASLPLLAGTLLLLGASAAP

[47] = target: T5, Ubiquitin-conjugating enzyme E2 N (Homo sapiens, UniProt P61088); type: functional;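 also: Dose-response confirmation in a TR-FRET assay detecting UBC13-driven polyubiquitin chain formation, inhibition measured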
T5 sequence (P61088 whole entry): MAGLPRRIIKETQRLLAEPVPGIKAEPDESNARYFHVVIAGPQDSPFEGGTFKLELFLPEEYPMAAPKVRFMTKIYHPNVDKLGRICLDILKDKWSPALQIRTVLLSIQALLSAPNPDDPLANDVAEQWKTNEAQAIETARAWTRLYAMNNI

CCc1nc(N2CCCCC2C)c2oc3ccccc3c2n1 (configuration not stated)
AC50 [1]: 49.6 µM (active)
AC50 [2]: 11.7 µM (active)
AC50 [3]: 14.2 µM (active)
AC50 [4]: 36.2 µM (active)

Cc1cc2ccccc2n1CCNC(=O)Cc1ccccc1
EC50 [5]: 2.9 µM (active)

COc1ccc(-c2nnn(CC(=O)N(Cc3ccco3)C(C(=O)NCC3CCCO3)c3ccco3)n2)cc1 (configuration not stated)
AC50 [6]: > 30 µM (inactive)

CCOC(=O)C1(CCOc2ccccc2)CCN(C(=O)OC(C)(C)C)CC1
AC50 [7]: 44.4 µM (active)
AC50 [8]: > 30 µM (inactive)

COc1ccc(-c2ccc([C@@H]3[C@@H]4CN(Cc5cc(OC)cc(OC)c5)C[C@H]3N4)cc2)cc1
AC50 [9]: 10.5 µM (active)
AC50 [10]: 23.8 µM (active)
AC50 [11]: 10.1 µM (active)
AC50 [12]: 21.5 µM (active)
AC50 [13]: 6.38 µM (active)
AC50 [14]: 2.24 µM (active)
AC50 [15]: 11.8 µM (active)

O=C(NCc1nc2ccccc2[nH]1)C1=C[C@@H](c2ccc3c(c2)OCO3)C[C@@H](OCCCCO)O1
IC50 [16]: > 83.3 µM (inactive)

O=C1C(NS(=O)(=O)c2ccccc2)=C(N2CCOCC2)C(=O)c2ccccc21
AC50 [17]: > 70 µM (inactive)
AC50 [18]: > 70 µM (inactive)

COc1ccccc1NC1=C(C(N)=O)C(=N)C(C(=O)Nc2cccc(Cl)c2Cl)S1 (configuration not stated)
EC50 [19]: 22.3 µM (active)
EC50 [20]: 14.5 µM (active)
AC50 [21]: 6.08 µM (active)
EC50 [22]: 4.27 µM (active)
EC50 [23]: 33.3 µM (inconclusive)

COc1ccccc1NC(=O)CN1C2CCCC1CC(NC(=O)c1cc(OC)c(OC)c(OC)c1)C2 (configuration not stated)
IC50 [24]: > 79 µM (inactive)
IC50 [25]: > 79 µM (inactive)

COc1ccccc1NC(=O)c1cccc(NC(=O)CC2CCCC2)c1
IC50 [26]: 2.63 µM (active)
IC50 [27]: 86 nM (active)

Cc1ccccc1-c1ccc(/C=C2/SC(N3CCOCC3)=NC2=O)o1
EC50 [28]: 6.39 µM (active)
EC50 [29]: 26.1 µM (inconclusive)
EC50 [30]: 92.5 µM (inactive)
EC50 [31]: 69.6 µM (active)

Cc1ccc(S(=O)(=O)N(C)C[C@@H]2OCCCC[C@@H](C)Oc3ccc(NS(=O)(=O)c4ccc(Cl)cc4)cc3C(=O)N([C@@H](C)CO)C[C@H]2C)cc1
AC50 [32]: > 30 µM (inactive)

Cc1nc2ccc(NC(=O)N3CCCCC3)cc2nc1C
EC50 [33]: 5.48 µM (active)

C=CCOc1ccccc1CN1CCC(Cc2ccccc2)CC1
AC50 [34]: 35 µM (active)

C/C(=C/c1oc2ccc(O)cc2c1[N+](=O)[O-])N(C)C
IC50 [35]: 9.41 µM (active)
IC50 [36]: 13.3 µM (active)
IC50 [37]: > 100 µM (inactive)

Oc1ccc(-c2[nH]nc(C(F)(F)F)c2-c2ccccc2)c(O)c1
AC50 [38]: 473 nM (active)
IC50 [39]: 547 nM (active)
AC50 [40]: 3.81 µM (active)
IC50 [41]: 666 nM (active)
AC50 [42]: 53.2 µM (active)
AC50 [43]: 2.63 µM (active)
AC50 [44]: 283 nM (active)

COc1ccc(NC(S)=NNC(=O)c2nnn(-c3ccccc3)c2C)cc1
IC50 [45]: > 122 µM (inactive)
EC50 [46]: 14.2 µM (active)
IC50 [47]: > 20 µM (inactive)

From ChEMBL document CHEMBL1201862, “PubChem BioAssay data set” (2004)
